Data taken from ChEMBL document CHEMBL1201862, “PubChem BioAssay data set” (2004).
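Values below derive from 48-hour exposures of cells grown in 96-well plates, with endpoints linearly interpolated between the two concentrations bracketing the appropriate inhibition level. GI50 marks 50% less growth.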 Activity calls are given as the source filed them. No stated cut-off is given here; in the data, active = GI50 up to about 1.1 µM and inactive = higher.

Key:
Assay in all cases: growth of human tumour cells (NCI), 48 h
DMS-114 = test system: DMS-114
DMS-273 = test system: DMS-273
SNB-78 = test system: SNB-78
DLD-1 = test system: DLD-1
XF498 = test system: XF498
RXF 631 = test system: RXF 631
KM-20L2 = test system: KM-20L2
LXFL 529 = test system: LXFL 529
HOP-18 = test system: HOP-18

SMILES	GI50 (DMS-114)	GI50 (DMS-273)	GI50 (SNB-78)	GI50 (DLD-1)	GI50 (XF498)	GI50 (RXF 631)	GI50 (KM-20L2)	GI50 (LXFL 529)	GI50 (HOP-18)
COc1c(NC(C)=O)cc(C)cc1NC(C)=O	> 100 µM (inactive)	> 100 µM (inactive)	> 100 µM (inactive)	> 100 µM (inactive)	> 100 µM (inactive)				
O=S(=O)(NCn1ccc2ccccc21)c1ccccc1		> 64.3 µM (inactive)	> 53.1 µM (inactive)	40.9 µM (inactive)	> 100 µM (inactive)	> 100 µM (inactive)	> 100 µM (inactive)	> 100 µM (inactive)	> 100 µM (inactive)
O=C(/C=C/c1c(O)ccc2ccccc12)c1ccc2ccccc2c1	> 100 µM (inactive)	> 100 µM (inactive)	> 100 µM (inactive)	> 100 µM (inactive)			> 100 µM (inactive)		
CCC[S+]([O-])c1nc(COC(=O)NC)c(COC(=O)NC)n1C (stereo not given)	> 100 µM (inactive)	> 100 µM (inactive)	> 100 µM (inactive)	> 100 µM (inactive)	> 100 µM (inactive)	> 100 µM (inactive)	> 100 µM (inactive)	> 100 µM (inactive)	> 100 µM (inactive)
O=NN(CCCl)C(=O)NC1CCC(=O)NC1=O (stereo not given)	214 µM (inactive)	160 µM (inactive)	176 µM (inactive)	358 µM (inactive)	69 µM (inactive)		800 µM (inactive)		432 µM (inactive)
C[C@H]1COC2(c3ccccc3)CCC(=O)N12 (stereo not given in full)	> 100 µM (inactive)	> 100 µM (inactive)	> 100 µM (inactive)	> 100 µM (inactive)	> 100 µM (inactive)		> 100 µM (inactive)		> 100 µM (inactive)
Cc1ccc(NC(=O)CC(=O)n2nc(-c3ccccc3)c(/N=N\c3ccccc3[N+](=O)[O-])c2-c2ccccc2)cc1	84.5 µM (inactive)	44 µM (inactive)	> 100 µM (inactive)	77.8 µM (inactive)	37.5 µM (inactive)	27.6 µM (inactive)	> 100 µM (inactive)	38.6 µM (inactive)	> 100 µM (inactive)
O=c1[nH]c(C2CCCCC2)nc2cc(Cl)ccc12	> 100 µM (inactive)	> 100 µM (inactive)	> 100 µM (inactive)				> 100 µM (inactive)	> 100 µM (inactive)	
NN=C1/C(=C\c2ccccc2)CCC/C1=C/c1ccccc1	26.1 µM (inactive)	39.9 µM (inactive)	50.5 µM (inactive)	31.8 µM (inactive)			39.6 µM (inactive)	31.4 µM (inactive)	63.4 µM (inactive)
CC(=O)/C=C\C1CC2C=CC1C2 (stereo not given)	21.5 µM (inactive)	41 µM (inactive)	22.1 µM (inactive)	15.1 µM (inactive)		51.5 µM (inactive)	40.2 µM (inactive)	29.4 µM (inactive)	96.6 µM (inactive)
COCOc1ccc(Cn2c(=O)n(C)c(=O)c3c2ncn3C)cc1[N+](=O)[O-]	44.6 µM (inactive)	> 100 µM (inactive)	> 100 µM (inactive)	> 100 µM (inactive)			> 100 µM (inactive)	79.8 µM (inactive)	
CC(=O)NC(CCCNC(=O)OCc1ccccc1)C(=O)O (stereo not given)	> 100 µM (inactive)	> 100 µM (inactive)	49.5 µM (inactive)	> 100 µM (inactive)	> 100 µM (inactive)	> 100 µM (inactive)	> 100 µM (inactive)	47.5 µM (inactive)	
O=C(/C=C(\O)C(=O)O)/C=C(\O)c1ccccc1Cl	> 100 µM (inactive)	> 100 µM (inactive)		> 100 µM (inactive)	> 100 µM (inactive)		> 100 µM (inactive)	> 100 µM (inactive)	> 100 µM (inactive)
CC1CC(C)C2OC2(C)C[C@H](C)C(=O)NC(C)C(=O)N(C)[C@H](Cc2c(Br)[nH]c3ccccc23)C(=O)N[C@@H](c2ccc(O)cc2)CC(=O)O1 (stereo not given in full)	0.0348 µM (active)	0.0241 µM (active)	0.309 µM (active)	3.37 µM (inactive)	0.838 µM (active)	0.76 µM (active)	0.15 µM (active)	0.221 µM (active)	
CC/C(CC(=O)CCC(=O)Nc1ccc(C)c(C)c1)=N\NC(=O)C(N)=O	> 100 µM (inactive)	> 100 µM (inactive)	> 100 µM (inactive)	> 100 µM (inactive)	> 100 µM (inactive)		> 100 µM (inactive)	> 100 µM (inactive)	> 100 µM (inactive)
CC1(O)CCn2c(=O)c3cc4ccccc4cc3c(=O)n2C1O (stereo not given)	> 100 µM (inactive)	> 100 µM (inactive)		> 100 µM (inactive)		> 100 µM (inactive)	> 100 µM (inactive)	> 100 µM (inactive)	26.8 µM (inactive)
O=C(O)Cc1cc(=O)oc2cc(O)c(Cl)cc12	> 100 µM (inactive)	> 100 µM (inactive)		> 100 µM (inactive)	> 100 µM (inactive)		> 100 µM (inactive)	> 100 µM (inactive)	> 100 µM (inactive)
CC(=O)O[C@H]1C(=O)[C@@]2(C)C(C(OC(=O)c3ccccc3)[C@]3(O)CC(OC(=O)C(O)C(NC(=O)c4ccc(C(F)(F)F)cc4)c4ccccc4)C(C)=C1C3(C)C)[C@]1(OC(C)=O)CO[C@@H]1C[C@@H]2O (stereo not given in full)	0.0226 µM (active)	0.0431 µM (active)	0.453 µM (active)	0.231 µM (active)	0.681 µM (active)		0.0767 µM (active)		0.836 µM (active)
CS(=O)(=O)N(CCC#N)c1ccc(C=O)cc1	> 100 µM (inactive)	> 100 µM (inactive)			> 100 µM (inactive)		> 100 µM (inactive)	> 100 µM (inactive)	
Cc1c(N2CCN(C)CC2)nc2ccc(Cl)cc2c1-c1ccccc1	15.8 µM (inactive)	17 µM (inactive)	16.3 µM (inactive)				15.7 µM (inactive)	16.9 µM (inactive)	
CCc1nc2ccccc2c(=O)n1/N=C(\N=N\c1ccc(Cl)cc1)c1ccccc1	18.7 µM (inactive)	20.7 µM (inactive)	27.1 µM (inactive)	37.2 µM (inactive)			14 µM (inactive)	19.1 µM (inactive)	12.5 µM (inactive)
C=CCNC(=O)/C=C\C(=O)O	> 100 µM (inactive)	> 100 µM (inactive)	> 100 µM (inactive)	> 100 µM (inactive)		> 100 µM (inactive)	> 100 µM (inactive)	> 100 µM (inactive)	> 100 µM (inactive)
CC(=O)Nc1ccccc1-c1nc2ccccc2nc1C	> 100 µM (inactive)		> 100 µM (inactive)	> 100 µM (inactive)		> 100 µM (inactive)	> 100 µM (inactive)	> 100 µM (inactive)	> 100 µM (inactive)
